Measurements from US10226044B2, “Agricultural and horticultural composition and method for cultivating plant” (AJINOMOTO CO., INC., priority 2014, dated 2019).
Like-named read-outs stand apart in the source and are kept apart here.

How the values were obtained:
[1] = test system: cherry tomato (Micro-Tom); test: Sprinkling of Ile on cherry tomato (Micro-Tom): blooming, appearance, ripening and number of fruit; format: in vivo
Protocol: Three seeds of cherry tomato (Micro-Tom) were shown in compost contained in a slit pot (upper diameter 10.5 cm×height 8.8 cm), and cultivated in a biotron at a temperature of 23° C. with a light period of 14 hours (6:00 to 20:00) and dark period of 10 hours (20:00 to 6:00). As the compost, a mixture of Kumiai Nippi Engei Baido No. 1 (Nihon Hiryo) and vermiculite at a ratio of 3:1 (volume ratio) was used. After 3 weeks, one root clump was left, and the others were thinned out. From one month after the sowing to harvest, a 300-fold diluted solution of Hyponex liquid fertilizer (N:P:K=6:10:5, Hyponex Japan) was additionally applied as soil fertilizer by irrigation at a frequency of once a week in a volume of 100 mL per one root clump (pot). After the plants of five root clumps uniformly grew, and flower buds began to appear, water (Control, or Con) or 10 mM L-isoleucine aqueous solution (Ile) was sprinkled on the whole plants once a week. The sprinkled volume was 5 mL per one root clump. Then, the blooming, appearance of fruit, ripening of the fruit, and number of fruit produced were investigated for each root clump.

[2] = test system: cherry tomato (Suncherry Pure); test: Antioxidant capacity of tomato fruit extract (DPPH radical method); format: in vivo; conditions: 70% methanol extract of mature fruit; compared to tomatoes sprinkled with water (Con.) or Pro
Protocol: After the plants of four root clumps uniformly grew, and flower buds began to appear, water (Con.), 10 mM L-isoleucine aqueous solution (Ile), or 10 mM proline aqueous solution (Pro) was sprinkled on the whole plants once a week. The sprinkled volume was adjusted in accordance with the growth of the plants, and it was 15 to 30 mL per one root clump.

[3] = test system: LOX, JAR1, PI and MYC2 genes; test: Real-time PCR of jasmonic acid synthesis and response genes in leaves after foliar application; format: in vivo, cherry tomato (Suncherry Pure); conditions: 10 mM Ile, 3 hours after foliar application
Protocol: Three hours after the foliar application, leaves of the same part were collected, and RNA was isolated by using SV Total RNA Isolation System™ (Promega) according to the manual of the kit. […] Expression of the 13-lipoxygenase (LOX) gene locating in the upstream of the jasmonic acid biosynthesis pathway, and the gene for synthesis of JA-Ile from JA and Ile (JASMONATE RESISTANT 1 (JAR1)) were analyzed. The expression amounts of the genes are represented as relative expression amounts with respect to that of the actin gene. The results of real-time PCR analysis of the jasmonic acid responding genes, protease inhibitor (PI) and MYC2 genes, performed by using the aforementioned cDNAs as the template are shown in FIG. 13. By the sprinkling of Ile, expression of the PI and MYC2 genes were increased.

LOX and Psy genes = test: Gene expression in pepper (Anaheim) sprinkled with Ile; format: in vivo; conditions: 10 mM Ile once a week, compared to Con.
Protocol: A 10 mM isoleucine aqueous solution (Ile) was sprinkled on pepper plants (variety, Anaheim), which also belong to the family Solanaceae, like tomato, and gene expression analysis was performed. The pepper plants were cultivated in a greenhouse in the same manner as described in Example 2. Ile was sprinkled once a week, and after the second sprinkling, leaves were collected from the pepper plants. RNA extraction, cDNA synthesis, and real-time PCR were performed in the same manner as described in Example 5 to analyze gene expression. Expression of the LOX gene was analyzed by using leaves collected 3 hours after the second sprinkling, and expression of the Psy gene was analyzed by using leaves collected 24 hours after the second sprinkling.

[4] = test system: grape (Cabernet Sauvignon); test: Anthocyanin content of pericarp of grape bunches sprinkled with isoleucine; format: in vivo; conditions: 10 mM isoleucine + 0.1% Applauch BI, 6.25 mL per bunch; Cabernet Sauvignon after start of veraison
Protocol: For the test, Cabernet Sauvignon plants that had been cultivated in a test cultivation field and had begun veraison were used. Eight bunches of fruit of the grape were collected from each of two root clumps, i.e., total 16 bunches of fruit were collected, and 6.25 mL per bunch of 0.1% Applauch BI (Kao, control), 1 g/L of abscisic acid (ABA)+0.1% Applauch BI (positive control), or 10 mM isoleucine+0.1% Applauch BI were sprinkled on them. The samples were collected 4 times, and they were collected from 4 bunches for each time. Anthocyanin contained in pericarp was extracted with a mixed solution of water and acetone (1:2) from pericarp, and anthocyanin content was measured in the same manner as described above.

[5] = test system: Apples (variety, Tsugaru); test: Anthocyanin content of pericarp of harvested apples immersed in Ile solutions; format: in vivo, apple; conditions: immersed 15 minutes in Ile solutions (1, 5, 10 mM) + 0.1% Applauch BI; 10th and 15th days after the treatment; compared to control group
Protocol: Apples (variety, Tsugaru) ready to mature (before coloring) were harvested, washed with tap water and then with distilled water, and immersed into water (control) and isoleucine (Ile) aqueous solutions of various concentrations for 15 minutes. To each treatment solution, 0.1% Applauch BI (Kao) was added. The treatment groups consisted of the following groups.
After the treatment, the apples were air-dried, and left standing in an incubator. The conditions consisted of constant temperature of 20° C., lighting condition of 120 μM/m^2/s obtained with 9 of 40 W fluorescent lamps, and daylength conditions of 16 hours of light period and 8 hours of dark period per day.
Pericarp color of the apples was evaluated by measuring anthocyanin content. Pericarp (0.5 g) collected from an apple of each treatment group was immersed in 5 mL of 2% formic acid at 4° C. for 24 hours to extract anthocyanin. Anthocyanin contained in the extract was analyzed by liquid chromatography. Since most part of anthocyanin of apple consists of cyanidin galactosides, anthocyanin concentration was calculated as cyanidin galactoside concentration.

[6] = cited from earlier work
Phelipanche aegyptiaca = conditions: plants cultivated on an agar medium; cited from earlier work
bok choy = conditions: substitution for 20% of nitrate nitrogen in nutrient solution, hydroponics; cited from earlier work
[7] = 10 mM, once a week, compared to control
[8] = relative to actin, compared to water (Con.)

## CC[C@H](C)[C@H](N)C(=O)O [Ile, L-isoleucine]
[1]; 10 mM L-isoleucine sprinkled on whole plants once a week, 5 mL per root clump, compared to water (Con)
  Blooming and appearance of the fruit: occurred sooner
[1]; [7]
  Ripening of the tomatoes (fruit turned orange or red): began earlier
  number of colored tomatoes at the same time point: larger
[1]; 10 mM, once a week, compared to water (Con)
  numbers of blooms and fruit: larger
[1]; 10 mM, once a week, harvest on the 82nd day after sowing
  number of harvested tomatoes, larger as compared to control: 20%
[2]
  antioxidant capacity (free radical-eliminating ability, DPPH): higher
[3]
  expression of the MYC2 gene: increased
  expression of the PI gene: increased
[3]; [8]
  Expression of the JAR1 gene in leaves: significantly higher
  Expression of the LOX gene in leaves: significantly higher
LOX and Psy genes; leaves 3 hours after the second sprinkling
  Expression of the LOX gene: higher
LOX and Psy genes; leaves 24 hours after the second sprinkling
  Expression of the Psy gene: higher
[4]
  anthocyanin content of pericarp: increases
[5]
  anthocyanin content of apple pericarp: higher
[6]; 20° C.
  solubility of isoleucine in water: 40.2 mg/mL
[6]
  solubility of isoleucine in water: about 0.3 M
Phelipanche aegyptiaca
  infection of Phelipanche aegyptiaca in Arabidopsis thaliana: ineffective
Bok choy
  growth (weight of root clump): not effective
  nitrogen and phosphorus contents of terrestrial parts (shoots): increased
